Here are results for 22 compounds from patent US12065436B2, “Cardiac sarcomere inhibitors” (Cytokinetics, Inc., priority 2018, dated 2024).

The test has as its target bovine cardiac myofibrils (full-length cardiac myosin ATPase in the native sarcomere) (Bos taurus (Bovine), UniProt Q9BE39). In words: Skinned bovine cardiac myofibril ATPase assay (PK/LDH-coupled). Type of test: biochemical. Particulars: Ca2+ activating to 75% of maximal rate; for CDMF75 IC15: concentration giving 15% inhibition; for pIC50: read-out: CDMF75 IC50. The procedure, abridged: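 Triton-skinned bovine left-ventricle myofibrils (1 mg/mL) in PM 12 buffer (12 mM PIPES, 2 mM MgCl2, pH 6.8) with 50 μM ATP, 0.6 mM EGTA and CaCl2 set for 50% or 75% activation. Steady-state ATPase inhibition followed by PK/LDH-coupled NADH oxidation at 340 nm.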

pIC50: −log10 of the molar value. A value given as a limit tells only on which side of the number the result lay.

Chain of bovine cardiac myofibrils (full-length cardiac myosin ATPase in the native sarcomere) (Q9BE39 whole entry): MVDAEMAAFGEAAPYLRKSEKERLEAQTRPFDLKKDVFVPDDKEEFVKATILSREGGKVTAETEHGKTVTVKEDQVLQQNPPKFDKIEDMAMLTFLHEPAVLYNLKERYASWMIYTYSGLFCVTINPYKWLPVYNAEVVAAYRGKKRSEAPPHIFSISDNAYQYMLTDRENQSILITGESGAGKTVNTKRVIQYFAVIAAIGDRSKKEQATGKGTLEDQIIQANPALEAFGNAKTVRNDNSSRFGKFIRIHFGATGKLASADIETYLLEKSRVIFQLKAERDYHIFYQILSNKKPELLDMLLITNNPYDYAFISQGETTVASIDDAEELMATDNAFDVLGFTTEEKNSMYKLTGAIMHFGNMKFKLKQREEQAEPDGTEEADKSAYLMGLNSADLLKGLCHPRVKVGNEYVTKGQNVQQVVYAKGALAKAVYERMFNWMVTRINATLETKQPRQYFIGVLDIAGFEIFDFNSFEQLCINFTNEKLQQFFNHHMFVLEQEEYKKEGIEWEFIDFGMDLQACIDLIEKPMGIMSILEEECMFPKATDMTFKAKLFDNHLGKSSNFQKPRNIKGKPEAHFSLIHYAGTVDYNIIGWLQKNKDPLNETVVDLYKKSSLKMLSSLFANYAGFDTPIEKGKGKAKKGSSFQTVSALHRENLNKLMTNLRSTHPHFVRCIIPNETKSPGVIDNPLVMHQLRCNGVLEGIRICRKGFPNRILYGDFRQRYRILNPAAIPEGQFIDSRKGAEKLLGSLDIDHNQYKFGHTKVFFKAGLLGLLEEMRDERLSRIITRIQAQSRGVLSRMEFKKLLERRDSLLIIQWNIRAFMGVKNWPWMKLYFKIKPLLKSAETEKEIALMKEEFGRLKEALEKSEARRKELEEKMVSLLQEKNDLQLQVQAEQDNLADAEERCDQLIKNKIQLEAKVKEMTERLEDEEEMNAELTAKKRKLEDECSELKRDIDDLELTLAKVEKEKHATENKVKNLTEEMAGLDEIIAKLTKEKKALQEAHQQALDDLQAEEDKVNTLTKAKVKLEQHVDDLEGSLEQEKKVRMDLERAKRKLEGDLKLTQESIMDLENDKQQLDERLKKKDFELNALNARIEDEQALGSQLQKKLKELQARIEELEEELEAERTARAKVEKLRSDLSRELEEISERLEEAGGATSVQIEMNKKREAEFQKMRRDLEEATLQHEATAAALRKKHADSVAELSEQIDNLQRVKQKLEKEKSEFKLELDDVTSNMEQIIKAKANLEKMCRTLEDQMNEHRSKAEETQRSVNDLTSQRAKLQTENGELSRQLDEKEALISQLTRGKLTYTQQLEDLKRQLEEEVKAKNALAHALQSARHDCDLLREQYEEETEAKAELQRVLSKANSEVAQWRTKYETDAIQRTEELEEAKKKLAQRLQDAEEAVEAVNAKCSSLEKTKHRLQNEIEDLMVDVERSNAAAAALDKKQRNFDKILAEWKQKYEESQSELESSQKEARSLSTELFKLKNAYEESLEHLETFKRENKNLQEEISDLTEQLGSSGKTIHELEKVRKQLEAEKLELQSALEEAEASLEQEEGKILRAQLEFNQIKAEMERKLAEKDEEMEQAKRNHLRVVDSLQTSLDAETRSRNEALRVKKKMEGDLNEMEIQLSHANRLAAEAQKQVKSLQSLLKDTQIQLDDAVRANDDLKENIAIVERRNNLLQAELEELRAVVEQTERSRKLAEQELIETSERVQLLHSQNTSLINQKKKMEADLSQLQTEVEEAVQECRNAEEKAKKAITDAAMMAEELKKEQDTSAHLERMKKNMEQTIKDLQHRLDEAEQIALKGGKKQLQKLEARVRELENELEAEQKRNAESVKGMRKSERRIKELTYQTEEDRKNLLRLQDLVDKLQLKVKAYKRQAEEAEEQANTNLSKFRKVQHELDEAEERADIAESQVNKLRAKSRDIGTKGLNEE
Chain of bovine cardiac myofibrils (full-length cardiac myosin ATPase in the native sarcomere) (P85100 whole entry partner): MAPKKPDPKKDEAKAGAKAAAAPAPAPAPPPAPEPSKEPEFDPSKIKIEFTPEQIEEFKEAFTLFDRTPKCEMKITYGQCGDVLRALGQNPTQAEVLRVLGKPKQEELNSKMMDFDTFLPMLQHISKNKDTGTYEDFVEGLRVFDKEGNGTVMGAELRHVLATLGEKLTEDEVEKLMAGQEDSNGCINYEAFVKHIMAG
Chain of bovine cardiac myofibrils (full-length cardiac myosin ATPase in the native sarcomere) (Q3SZE5 whole entry partner): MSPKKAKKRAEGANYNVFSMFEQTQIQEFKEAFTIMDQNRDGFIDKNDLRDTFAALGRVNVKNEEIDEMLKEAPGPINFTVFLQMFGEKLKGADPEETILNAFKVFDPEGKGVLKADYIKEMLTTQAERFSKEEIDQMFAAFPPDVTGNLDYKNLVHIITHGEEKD

Regarding `[2H]C([2H])([2H])c1noc(-c2ccc3c(c2)OC[C@H]3NC(=O)c2ccnn2C)n1` [Compound 312, (S)-1-methyl-N-(6-(3-(methyl-d3)-1,2,4-oxadiazol-5-yl)-2,3-dihydrobenzofuran-3-yl)-1H-pyrazole-5-carboxamide], the “CDMF75 IC15” value stood at 0.7 µM and the pIC50 is 5.62.

On to `O=C(NC1CCc2cc(-c3noc(C(F)F)n3)ccc21)c1cnn2c1CCC2` (centres unmarked) [Compound 36, N-(5-(5-(difluoromethyl)-1,2,4-oxadiazol-3-yl)-2,3-dihydro-1H-inden-1-yl)-5,6-dihydro-4H-pyrrolo[1,2-b]pyrazole-3-carboxamide], for which the “CDMF75 IC15” value was found to be 0.9 µM and the pIC50 was 5.33.

Consider `Cc1c(C(=O)NC2CCc3cc(-c4noc(C(F)F)n4)ccc32)cnn1C` (centres unmarked) [Compound 27, N-(5-(5-(difluoromethyl)-1,2,4-oxadiazol-3-yl)-2,3-dihydro-1H-inden-1-yl)-1,5-dimethyl-1H-pyrazole-4-carboxamide], for which the “CDMF75 IC15” value was 0.8 µM and the pIC50 was 5.48.

In the case of `Cc1noc(-c2ccc3c(c2)OC[C@H]3NC(=O)c2cnn(C)c2)n1` [Compound 313, (S)-1-methyl-N-(6-(3-methyl-1,2,4-oxadiazol-5-yl)-2,3-dihydrobenzofuran-3-yl)-1H-pyrazole-4-carboxamide], the “CDMF75 IC15” value was 1.6 µM and the pIC50 was 5.19.

Consider `CCc1nc(-c2ccc3c(c2)CC[C@H]3NC(C)=O)no1` [Compound 405, (R)-N-(5-(5-ethyl-1,2,4-oxadiazol-3-yl)-2,3-dihydro-1H-inden-1-yl)acetamide], for which the “CDMF75 IC15” value amounted to 0.6 µM and the pIC50 was 5.64.

As for `CCc1nc(-c2cc(Cl)c3c(c2)CC[C@H]3NC(=O)c2cnn(C)c2)no1` [Compound 588, (R)-N-(7-chloro-5-(5-ethyl-1,2,4-oxadiazol-3-yl)-2,3-dihydro-1H-inden-1-yl)-1-methyl-1H-pyrazole-4-carboxamide], the “CDMF75 IC15” value came out at 1.2 µM and the pIC50 was 5.37.

As for `CC(=O)N[C@@H]1CCc2cc(-c3noc(C4CCC4)n3)ccc21` [Compound 406, (R)-N-(5-(5-cyclobutyl-1,2,4-oxadiazol-3-yl)-2,3-dihydro-1H-inden-1-yl)acetamide], the “CDMF75 IC15” value came to 1.9 µM and the pIC50 is 5.11.

On to `CC(=O)N[C@@H]1COc2cc(-c3noc(C4CCC4)n3)ccc21` [Compound 458, (S)-N-(6-(5-cyclobutyl-1,2,4-oxadiazol-3-yl)-2,3-dihydrobenzofuran-3-yl)acetamide], for which the “CDMF75 IC15” value was found to be 2.0 µM and the pIC50 is 5.04.

Regarding `Cc1ncc(C(=O)NC2CCc3cc(-c4noc(C(F)F)n4)ccc32)s1` (centres unmarked) [Compound 10, N-(5-(5-(difluoromethyl)-1,2,4-oxadiazol-3-yl)-2,3-dihydro-1H-inden-1-yl)-2-methylthiazole-5-carboxamide], the “CDMF75 IC15” value was found to be 1.0 µM and the pIC50 was 5.47.

On to `Cn1nccc1C(=O)N[C@@H]1CCc2cc(C#CC3CC3)ccc21` [Compound 451, (R)-N-(5-(cyclopropylethynyl)-2,3-dihydro-1H-inden-1-yl)-1-methyl-1H-pyrazole-5-carboxamide], for which the “CDMF75 IC15” value worked out at 2.3 µM and the pIC50 was 5.11.

Take `Cc1cc(C(=O)N[C@@H]2CCc3cc(-c4coc(C)n4)ccc32)ccn1` [Compound 146, (R)-2-methyl-N-(5-(2-methyloxazol-4-yl)-2,3-dihydro-1H-inden-1-yl)isonicotinamide]: the “CDMF75 IC15” value came out at 21.2 µM and the pIC50 is less than 4.41.

`Cc1nc(-c2ccc3c(c2)CCC3NC(=O)c2cnn(C)n2)no1` (centres unmarked) [Compound 44, 2-methyl-N-(5-(5-methyl-1,2,4-oxadiazol-3-yl)-2,3-dihydro-1H-inden-1-yl)-2H-1,2,3-triazole-4-carboxamide]: the “CDMF75 IC15” value amounted to 3.3 µM and the pIC50 is 4.91.

With `CCn1nc(C)c(C(=O)NC2CCc3cc(-c4noc(C(F)F)n4)ccc32)n1` (centres unmarked) [Compound 20, N-(5-(5-(difluoromethyl)-1,2,4-oxadiazol-3-yl)-2,3-dihydro-1H-inden-1-yl)-2-ethyl-5-methyl-2H-1,2,3-triazole-4-carboxamide], the “CDMF75 IC15” value came out at 2.3 µM and the pIC50 was less than 4.41.

Turning to `CCc1nc(-c2ccc3c(c2)CC[C@H]3NC(=O)c2ncoc2C)no1` [Compound 622, (R)-N-(5-(5-ethyl-1,2,4-oxadiazol-3-yl)-2,3-dihydro-1H-inden-1-yl)-5-methyloxazole-4-carboxamide], the “CDMF75 IC15” value was determined as 0.9 µM and the pIC50 is 5.44.

On to `CCc1nc(-c2ccc3c(c2)CC[C@H]3NC(=O)c2cnn(C[C@@H](O)CO)c2)no1` [Compound 539, N-[(1R)-5-(5-ethyl(1,2,4-oxadiazol-3-yl))indanyl][1-((2R)-2,3-dihydroxypropyl)pyrazol-4-yl]carboxamide], for which the “CDMF75 IC15” value worked out at 1.3 µM and the pIC50 is 5.22.

As for `Cc1cc(C(=O)N[C@@H]2CCc3cc(-c4cc(C(F)F)on4)ccc32)ccn1` [Compound 169, (R)-N-(5-(5-(difluoromethyl)isoxazol-3-yl)-2,3-dihydro-1H-inden-1-yl)-2-methylisonicotinamide], the “CDMF75 IC15” value worked out at 0.5 µM and the pIC50 is 5.74.

In the case of `Cn1nccc1C(=O)N[C@@H]1CCc2cc(-c3ccccn3)ccc21` [Compound 367, (R)-1-methyl-N-(5-(pyridin-2-yl)-2,3-dihydro-1H-inden-1-yl)-1H-pyrazole-5-carboxamide], the “CDMF75 IC15” value came out at 13.9 µM and the pIC50 was less than 4.41.

On to `COCc1nc(-c2ccc3c(c2)CC[C@H]3NC(=O)c2cnn(C)c2C)no1` [Compound 181, (R)-N-(5-(5-(methoxymethyl)-1,2,4-oxadiazol-3-yl)-2,3-dihydro-1H-inden-1-yl)-1,5-dimethyl-1H-pyrazole-4-carboxamide], for which the “CDMF75 IC15” value stood at 1.1 µM and the pIC50 was 5.40.

As for `[2H]C([2H])([2H])c1nc(-c2ccc3c(c2)CC[C@H]3NC(=O)c2cnn(CCO)c2)no1` [Compound 519, (R)-1-(2-hydroxyethyl)-N-(5-(5-(methyl-d3)-1,2,4-oxadiazol-3-yl)-2,3-dihydro-1H-inden-1-yl)-1H-pyrazole-4-carboxamide], the “CDMF75 IC15” value was 1.9 µM and the pIC50 is 5.06.

Regarding `CCc1nc(-c2ccc3c(c2)CC[C@H]3NC(=O)C2CCCCN2C)no1` (stereo partly drawn) [Compound 353, N-((R)-5-(5-ethyl-1,2,4-oxadiazol-3-yl)-2,3-dihydro-1H-inden-1-yl)-1-methylpiperidine-2-carboxamide], the “CDMF75 IC15” value is 29.0 µM and the pIC50 is less than 4.41.

For the compound `Cc1n[nH]cc1C(=O)NC1CCc2cc(-c3noc(C(F)F)n3)ccc21` (centres unmarked) [Compound 69, N-(5-(5-(difluoromethyl)-1,2,4-oxadiazol-3-yl)-2,3-dihydro-1H-inden-1-yl)-3-methyl-1H-pyrazole-4-carboxamide], the “CDMF75 IC15” value turned out to be 0.6 µM and the pIC50 was 5.64.

As to `[2H]C([2H])([2H])c1nc(-c2ccc3c(c2)CC[C@H]3NC(=O)c2cnn(C)c2C)no1` [Compound 250, (R)-1,5-dimethyl-N-(5-(5-(methyl-d3)-1,2,4-oxadiazol-3-yl)-2,3-dihydro-1H-inden-1-yl)-1H-pyrazole-4-carboxamide], the “CDMF75 IC15” value was found to be 1.0 µM and the pIC50 is 5.44.
